Test results published in patent US20060069132A1, “Azolecarboxamide herbicides” (priority 2004, published 2006).

Legend:
corn = test: Test B pre-/postemergence herbicide test; assay type: in vivo, Zea mays; settings: for Corn plant response rating: postemergence, visual rating, scale 0 (no effect) to 100 (complete control)
How it was run: (§1)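 Evaluation is visual, comparing treated with control plants on a scale where 0 means no effect and 100 means full control. Treatments were preemergence, or postemergence on seedlings 2–18 cm tall, and held 13–15 days in the greenhouse.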

blackgrass = test: Test B postemergence herbicide test; assay type: in vivo, Alopecurus myosuroides; settings: postemergence, visual rating, scale 0 (no effect) to 100 (complete control)
How it was run: (§2)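 Greenhouse test; postemergence application to plants at 1–4 leaves (2–18 cm); paddy species at 2 leaves; evaluated visually vs controls at 13–15 days; scale 0–100 (100 = complete control).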

giant foxtail = test: Test B pre-/postemergence herbicide test; assay type: in vivo, Setaria faberi; settings: for Foxtail, Giant plant response rating: postemergence, visual rating, scale 0 (no effect) to 100 (complete control)
How it was run: as §1

rice [1] = test: Test B flooded paddy test; assay type: in vivo, Oryza sativa; settings: 1000 g ai/ha, visual rating, scale 0 to 100 (0 no effect, 100 complete control), 13 to 15 days
How it was run: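 Each value is a visual 0–100 response rating taken against controls 13 to 15 days after treatment in the greenhouse. Plants received formulated chemical postemergence at the 1- to 4-leaf stage or, in flooded paddy, at the 2-leaf stage.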

large crabgrass = test: Test B pre-/postemergence herbicide test; assay type: in vivo, Digitaria sanguinalis; settings: for Crabgrass, Large plant response rating: postemergence, visual rating, scale 0 (no effect) to 100 (complete control)
How it was run: as §1

[2] = tested on: small flower umbrella sedge; test: Test B flooded paddy test; assay type: in vivo, Cyperus difformis; settings: 1000 g ai/ha, visual rating, scale 0 to 100 (0 no effect, 100 complete control), 13 to 15 days
How it was run: as §2

wild oat = test: Test B postemergence herbicide test; assay type: in vivo, Avena fatua; settings: postemergence, visual rating, scale 0 (no effect) to 100 (complete control)
How it was run: (§3)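 Read-out: visual comparison with controls, scored 0 to 100, where 100 means complete control and 0 no effect. Formulated chemicals were applied postemergence to plants 2–18 cm tall (1- to 4-leaf), or to flooded-paddy plants at the 2-leaf stage, then held 13 to 15 days under glass.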

rice [3] = test: Test B pre-/postemergence herbicide test; assay type: in vivo, Oryza sativa; settings: preemergence
How it was run: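 Plants compared with untreated controls 13–15 days post-treatment and given a visual 0–100 injury score. Applications: preemergence to seeds; postemergence at 1- to 4-leaf (2–18 cm); paddy species flooded, 2-leaf stage. Vehicle non-phytotoxic, surfactant included.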

morningglory = test: Test B pre-/postemergence herbicide test; assay type: in vivo, Ipomoea coccinea; settings: for Morningglory plant response rating: postemergence, visual rating, scale 0 (no effect) to 100 (complete control)
How it was run: (§4)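 Greenhouse pot assay with simultaneous preemergence (treated seed) and postemergence (2–18 cm seedlings) applications of surfactant-containing, non-phytotoxic solvent formulations. Response scored visually 13–15 days later on a 0–100 scale, 100 meaning complete control.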

ducksalad = test: Test B flooded paddy test; assay type: in vivo, Heteranthera limosa; settings: 1000 g ai/ha, visual rating, scale 0 to 100 (0 no effect, 100 complete control), 13 to 15 days
How it was run: as §2

cocklebur = test: Test B pre-/postemergence herbicide test; assay type: in vivo, Xanthium strumarium; settings: for Cocklebur plant response rating: postemergence, visual rating, scale 0 (no effect) to 100 (complete control)
How it was run: as §4

Surinam grass = test: Test B pre-/postemergence herbicide test; assay type: in vivo, Urochloa decumbens; settings: for Surinam Grass plant response rating: postemergence, visual rating, scale 0 (no effect) to 100 (complete control)
How it was run: as §1

barnyardgrass [4] = test: Test B flooded paddy test; assay type: in vivo, Echinochloa crus-galli; settings: 1000 g ai/ha, visual rating, scale 0 to 100 (0 no effect, 100 complete control), 13 to 15 days
How it was run: as §2

pigweed = test: Test B pre-/postemergence herbicide test; assay type: in vivo, Amaranthus retroflexus; settings: for Pigweed plant response rating: postemergence, visual rating, scale 0 (no effect) to 100 (complete control)
How it was run: as §1

lambsquarters = test: Test B pre-/postemergence herbicide test; assay type: in vivo, Chenopodium album; settings: for Lambsquarters plant response rating: postemergence, visual rating, scale 0 (no effect) to 100 (complete control)
How it was run: as §1

wheat = test: Test B postemergence herbicide test; assay type: in vivo, Triticum aestivum; parameters: key to Wheat plant response rating: 0 = no effect, 100 = complete control; settings: postemergence, visual rating, scale 0 (no effect) to 100 (complete control)
How it was run: as §3

barnyardgrass [5] = test: Test B pre-/postemergence herbicide test; assay type: in vivo, Echinochloa crus-galli; settings: for Barnyardgrass plant response rating: postemergence, visual rating, scale 0 (no effect) to 100 (complete control)
How it was run: as §4

velvetleaf = test: Test B pre-/postemergence herbicide test; assay type: in vivo, Abutilon theophrasti; settings: for Velvetleaf plant response rating: postemergence, visual rating, scale 0 (no effect) to 100 (complete control)
How it was run: as §1

[6] = 125 g ai/ha, 0 = no effect, 100 = complete control, preemergence
[7] = 500 g ai/ha, visual rating 0-100, 0 no effect, 100 complete control, preemergence

`CCN(CC)C(=O)c1cccc(NC(=O)c2cn(C(C)(C)C)nc2C)c1` [Compound 184] was tested, and the “Corn plant response rating (0 to 100 scale)” value (corn; [6]) was 0, the “Plant response rating, Corn” value (corn; [7]) was 0 and the “Corn plant response rating” value (corn; 125 g ai/ha) was 20. The “Corn plant response rating” value (corn; 500 g ai/ha) was 30, the “Blackgrass plant response rating” value (blackgrass; 125 g ai/ha) was 0 and the “Blackgrass plant response rating” value (blackgrass; 500 g ai/ha) was 0. For the same molecule, the “Foxtail, Giant plant response rating (0 to 100 scale)” value (giant foxtail; [6]) was 0, the “Plant response rating, Foxtail, Giant” value (giant foxtail; [7]) was 70 and the “Foxtail, Giant plant response rating” value (giant foxtail; 125 g ai/ha) was 30. The “Foxtail, Giant plant response rating” value (giant foxtail; 500 g ai/ha) was 40, the “Rice plant response rating” value (rice [1]) was 0 and the “Crabgrass, Large plant response rating (0 to 100 scale)” value (large crabgrass; [6]) was 30. For the same molecule, the “Plant response rating, Crabgrass, Large” value (large crabgrass; [7]) was 100, the “Crabgrass, Large plant response rating” value (large crabgrass; 125 g ai/ha) was 20 and the “Crabgrass, Large plant response rating” value (large crabgrass; 500 g ai/ha) was 30. The “Sedge, Umbrella plant response rating” value [2] was 30, the “Oat, Wild plant response rating” value (wild oat; 125 g ai/ha) was 20 and the “Oat, Wild plant response rating” value (wild oat; 500 g ai/ha) was 30. The “Rice plant response rating (0 to 100 scale)” value (rice [3]; 125 g ai/ha, 0 = no effect, 100 = complete control) was 0, the “Plant response rating, Rice” value (rice [3]; 500 g ai/ha, visual rating 0-100, 0 no effect, 100 complete control) was 0 and the “Morningglory plant response rating (0 to 100 scale)” value (morningglory; [6]) was 10. For the same molecule, the “Plant response rating, Morningglory” value (morningglory; [7]) was 50, the “Morningglory plant response rating” value (morningglory; 125 g ai/ha) was 0 and the “Morningglory plant response rating” value (morningglory; 500 g ai/ha) was 60. For the same molecule, the “Ducksalad plant response rating” value (ducksalad) was 0, the “Cocklebur plant response rating (0 to 100 scale)” value (cocklebur; [6]) was 0 and the “Plant response rating, Cocklebur” value (cocklebur; [7]) was 0. For the same molecule, the “Cocklebur plant response rating” value (cocklebur; 125 g ai/ha) was 30, the “Cocklebur plant response rating” value (cocklebur; 500 g ai/ha) was 60 and the “Surinam Grass plant response rating (0 to 100 scale)” value (Surinam grass; [6]) was 0. The “Plant response rating, Surinam Grass” value (Surinam grass; [7]) was 30, the “Surinam Grass plant response rating” value (Surinam grass; 125 g ai/ha) was 10 and the “Surinam Grass plant response rating” value (Surinam grass; 500 g ai/ha) was 20. For the same molecule, the “Barnyardgrass plant response rating” value (barnyardgrass [4]) was 0, the “Pigweed plant response rating (0 to 100 scale)” value (pigweed; [6]) was 100 and the “Plant response rating, Pigweed” value (pigweed; [7]) was 100. The “Pigweed plant response rating” value (pigweed; 125 g ai/ha) was 20, the “Pigweed plant response rating” value (pigweed; 500 g ai/ha) was 60 and the “Lambsquarters plant response rating (0 to 100 scale)” value (lambsquarters; [6]) was 50. For the same molecule, the “Plant response rating, Lambsquarters” value (lambsquarters; [7]) was 80, the “Lambsquarters plant response rating” value (lambsquarters; 125 g ai/ha) was 60 and the “Lambsquarters plant response rating” value (lambsquarters; 500 g ai/ha) was 70. For the same molecule, the “Wheat plant response rating” value (wheat; 125 g ai/ha) was 0, the “Wheat plant response rating” value (wheat; 500 g ai/ha) was 0 and the “Barnyardgrass plant response rating (0 to 100 scale)” value (barnyardgrass [5]; [6]) was 0. The “Plant response rating, Barnyardgrass” value (barnyardgrass [5]; [7]) was 60, the “Barnyardgrass plant response rating” value (barnyardgrass [5]; 125 g ai/ha) was 0 and the “Barnyardgrass plant response rating” value (barnyardgrass [5]; 500 g ai/ha) was 0. The “Velvetleaf plant response rating (0 to 100 scale)” value (velvetleaf; [6]) was 10, the “Plant response rating, Velvetleaf” value (velvetleaf; [7]) was 50 and the “Velvetleaf plant response rating” value (velvetleaf; 125 g ai/ha) was 30. The “Velvetleaf plant response rating” value (velvetleaf; 500 g ai/ha) was 60.
